This note sets out measurements from the supplement of paper PMC10307832.

What all share (test): relative viability (nuclei count vs DMSO), 5 days (fraction); higher = more cells survive
Compound in assay [1]: C1COCCN1C2=NC(=NC3=C2OC4=C3C=CC=N4)C5=CC(=CC=C5)NC(=O)C6=CN=C(C=C6)N + CS(=O)(=O)N1CCN(Cc2cc3nc(-c4cccc5[nH]ncc45)nc(N4CCOCC4)c3s2)CC1 [Pictilisib] (partner 1 µM)
In outline:
(§1)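 Relative viability divides the nuclei count in treated wells by that in vehicle wells. Lung cancer cell lines were seeded in 1536-well plates, dosed by pin tool the next day, and fixed and stained after 5 days in one step with final 0.05% Triton X-100, 1% formaldehyde and 1 ug/ml Hoechst. Dosing was a single drug or a fixed anchor-drug dose plus five library-drug doses (not always all listed) in √10 steps, and values are medians of duplicate plates imaged at 4×.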

Compound in the assay “SGI-1776 + Palbociclib”: CN1CCC(CNc2ccc3ncc(-c4cccc(OC(F)(F)F)c4)n3n2)CC1 [SGI-1776] + CC(=O)c1c(C)c2cnc(Nc3ccc(N4CCNCC4)cn3)nc2n(C2CCCC2)c1=O [Palbociclib] (partner 0.5 µM)
In a few lines:
as §1

Compound in the assay “SGI-1776 + Decitabine”: CN1CCC(CNc2ccc3ncc(-c4cccc(OC(F)(F)F)c4)n3n2)CC1 [SGI-1776] + Nc1ncn([C@H]2C[C@H](O)[C@@H](CO)O2)c(=O)n1 [Decitabine] (partner 2 µM)
In a few lines: as §1

Compound in the assay “Entinostat + Pictilisib”: Nc1ccccc1NC(=O)c1ccc(CNC(=O)OCc2cccnc2)cc1 [Entinostat] + CS(=O)(=O)N1CCN(Cc2cc3nc(-c4cccc5[nH]ncc45)nc(N4CCOCC4)c3s2)CC1 [Pictilisib] (partner 1 µM)
In outline: as §1

Turning to UMC-11, the relative viability in assay [1] (first compound 0.02 µM) came to 0.837; in assay [1] (first compound 0.06325 µM) it was 0.875; in assay [1] (first compound 0.2 µM), 0.791; in assay [1] (first compound 0.6325 µM) it was 0.776; in assay [1] (first compound 2 µM), 0.598; with SGI-1776 + Palbociclib (first compound 0.08 µM) it was 0.366. Further, the relative viability in the assay with SGI-1776 + Palbociclib (first compound 0.8 µM) came to 0.338; with SGI-1776 + Palbociclib (first compound 2.53 µM) it was 0.378; with SGI-1776 + Palbociclib (first compound 8 µM) it was 0.312; with SGI-1776 + Decitabine (first compound 0.08 µM), 0.588; in the assay with SGI-1776 + Decitabine (first compound 0.8 µM), 0.571; in the assay with SGI-1776 + Decitabine (first compound 2.53 µM) it was 0.654. The relative viability in the assay with SGI-1776 + Decitabine (first compound 8 µM) was 0.467; with Entinostat + Pictilisib (first compound 0.02 µM) it was 0.865; in the assay with Entinostat + Pictilisib (first compound 0.06325 µM), 0.848; with Entinostat + Pictilisib (first compound 0.2 µM), 0.836; with Entinostat + Pictilisib (first compound 0.6325 µM) it was 0.144; in the assay with Entinostat + Pictilisib (first compound 2 µM), 0.136.
